Measured values: US20130178453A1, “Cannabinoid Agonists” (priority 2010, published 2013)
Where two headings read alike, the source gives them in different places.

Experiments:
hCB2 [1] = biological target: T1, hCB2 (Homo sapiens, UniProt P34972); assay: hCB2 GTPγS agonist assay (HEK-293 membranes); assay type: biochemical
Procedure: (§1) cDNA expression clones for human CB 1 (hCB1, Genbank Accession No. AY225225) and human CB2 (hCB2, Genbank Accession No. AY242132) expressed in vector pcDNA3.1+ were purchased from UMR cDNA Resource Center, Rolla, Mo. (Clone ID CNR01L000 for hCB1; CNR0200000 for hCB2).
(§2) Membranes were isolated from transfected cells as follows. Monolayers of cultured cells were washed twice with phosphate-buffered saline (PBS). […] Homogenates were centrifuged 10 minutes at 1000×g at 4° C. The supernatant was collected and was centrifuged for 1 hour at 40,000×g. The supernatant was then decanted and the resulting pellet was re-suspended in 20 mM HEPES, pH 7.4, 5 mM MgCl2, 1 mM EDTA, 10% sucrose with complete cocktail protease inhibitors. Protein concentration of membrane suspensions were measured by Bradford Protein Assay using bovine serum albumin as the standard (BioRad catalog #500-0006). Protein concentrations of membrane suspensions were adjusted with the final buffer in the range of 5 to 10 mg/mL and were stored at −80° C. until further use.
^35S GTPγS binding assays were performed by incubating recombinant cell membranes prepared above (5 μg) in the presence of scintillation proximity assay beads (SPA beads, Catalog #RPNQ0252 GE Healthcare, Buckinghamshire, England) in GTPγS binding buffer [50 mM HEPES (pH 7.4), 100 mM NaCl, 5 mM MgCl2, 0.001% saponin (Sigma catalog #S4521)] supplemented with 20 uM GDP (Sigma catalog #G7127) in the presence or absence of test compound. The reaction was carried out in 96-well microplates with 0.1 nM [^35S]GTPγS (specific activity=1250 Ci/mmol; Perkin Elmer catalog #NEG030X250UC) in a final volume of 100 μL. After a 90 min room temperature incubation, the reaction was analyzed using a scintillation counter (Perkin Elmer Microbeta instrument). Binding data were analyzed using GraphPad Prism.

hCB2 [2] = biological target: T1, hCB2; assay: hCB2 radioligand binding assay ([3H]-CP 55,940 displacement); details: HEK membranes
Procedure: as §1, §2
A rapid filtration technique using Millipore FB filter plates (Catalog #MADVNOB) and filtration apparatus (Millipore system Catalog MAVM0960R) with vacuum aspiration was used to harvest and rinse labeled membranes (8 times with 0.2 mL of chilled binding buffer). […] Binding data were analyzed using GraphPad Prism (GraphPad Software, Inc. San Diego, Calif.).

hCB2 [3] = biological target: T1, hCB2; assay: hCB2 cAMP agonist assay (HEK-293 cells); assay type: cell-based
Procedure: as §1
cAMP assays were performed in HEK-293 cells stably expressing human CB 1 or CB2 receptors. […] Cells suspensions were centrifuged and the cells were washed once with PBS, were centrifuged again, and the cells were resuspended in HBSS (Hank's Balanced Salt Solution, Cellgro, Cat #21-022-CV) solution containing 10 mM HEPES and 0.1% fatty acid free BSA (Sigma, Cat #A0281). Cell suspensions were prepared at 1,500,000 cells per mL. Stock solutions of test substances (10 mM) in DMSO were diluted to 1 mM using 30% DMSO as diluent. Test substances of solutions (1 mM) were further diluted down to 3× of final assay concentrations in the above HBSS buffer containing 0.1% BSA in the presence of 90 uM forskolin (Sigma Cat#F6886). To perform the assay, 20 μL of cell suspension (1,500,000 cells/mL) were added to each well in 96 well plate and treated with 10 μL test substance solution diluted as described above. Cells and compounds were incubated at 37° C. for 30 minutes. Cells were lysed and cAMP concentration was measured using DiscoveRx-XS+ cAMP assay kit (DiscoveRx Corporation Ltd., Fremont, Calif., USA, Cat #90-0075-03), following the manufacturer's protocol. GraphPad Prism software was used to calculate EC50 values using sigmoidal dose response curve fitting. The maximal amount of cAMP produced by forskolin was defined as 100%.

hCB1 [4] = biological target: T2, hCB1 (Homo sapiens, UniProt P21554); assay: hCB1 cAMP agonist assay (HEK-293 cells); assay type: cell-based; details: cAMP agonist, HEK
hCB1 [5] = biological target: T2, hCB1; assay: hCB1 radioligand binding assay ([3H]-CP 55,940 displacement); details: HEK membranes
Description: as §1
Stable, HEK-293-derived cell lines that recombinantly express hCB1 or hCB2 were established. In brief, the clone hCB1 (CNR1L) or hCB2 (CNR2) was transfected into human embryonic kidney cells (HEK-293) using Lipofectamine 2000 (Gibco, Cat#11668-019) according to the manufacturer's protocol. Transfected clones were isolated by single colony purification and clones were screened for receptor expression using a whole cell, ^3H—CP 55,940 radioligand binding assay. HEK-293 stable cells were maintained in Dulbecco's modified Eagles medium (DMEM) containing 10% fetal bovine serum, 2 mM L-glutamine and 0.5 mg/mL G-418.
Membranes were isolated from transfected cells as follows. Monolayers of cultured cells were washed twice with phosphate-buffered saline (PBS). Cells were scraped into 20 mM HEPES, pH 7.4, 10 mM EDTA containing complete cocktail protease inhibitors (Roche, Catalog #11 697 498 001), and were homogenized by an electric-powered mechanical probe homogenizer (Omni GLH; probe G7-195S) for 40 seconds at 7000 rpm. Homogenates were centrifuged 10 minutes at 1000×g at 4° C. The supernatant was collected and was centrifuged for 1 hour at 40,000×g. The supernatant was then decanted and the resulting pellet was re-suspended in 20 mM HEPES, pH 7.4, 5 mM MgCl2, 1 mM EDTA, 10% sucrose with complete cocktail protease inhibitors. Protein concentration of membrane suspensions were measured by Bradford Protein Assay using bovine serum albumin as the standard (BioRad catalog #500-0006). Protein concentrations of membrane suspensions were adjusted with the final buffer in the range of 5 to 10 mg/mL and were stored at −80° C. until further use.
Radioligand binding assays were performed by incubating membranes (2-10 μg protein) prepared from HEK-293 cells expressing recombinant human cannabinoid receptors, CB 1 or CB2, at room temperature with 0.5 nM cannabinoid receptor agonist, [^3H]-CP 55,940 (Perkin Elmer, catalog #NET 1051) in 0.2 mL of binding buffer (50 mM Tris-HCl, pH 7.5, 5 mM MgCl2, 2.5 mM EDTA) and 0.1% fatty acid free bovine serum albumin (Sigma Cat. #A0821) for 90 minutes. A rapid filtration technique using Millipore FB filter plates (Catalog #MADVNOB) and filtration apparatus (Millipore system Catalog MAVM0960R) with vacuum aspiration was used to harvest and rinse labeled membranes (8 times with 0.2 mL of chilled binding buffer). The radioactivity bound to the filters was counted with 0.05 mL of liquid scintillant (UltraGold MV, PerkinElmer catalog #6013159) in a scintillation counter (Perkin Elmer Microbeta instrument). Nonspecific binding was determined in the presence of unlabeled 1 μM CP 55,940 (Sigma Aldrich, catalog #C1112). Binding data were analyzed using GraphPad Prism (GraphPad Software, Inc. San Diego, Calif.).

[6] = GTPγS agonist, HEK membranes, read-out: hCB2 EC50 (GTPyS ag, nM, HEK)
[7] = cAMP agonist, HEK, 96-well, read-out: hCB2 EC50 (cAMP ag, nM, HEK (96-well))
[8] = read-out: hCB2 IC50 (CP displ, nM, HEK)
[9] = read-out: hCB1 IC50 (CP displ, nM, HEK)

T1 sequence (P34972 whole entry): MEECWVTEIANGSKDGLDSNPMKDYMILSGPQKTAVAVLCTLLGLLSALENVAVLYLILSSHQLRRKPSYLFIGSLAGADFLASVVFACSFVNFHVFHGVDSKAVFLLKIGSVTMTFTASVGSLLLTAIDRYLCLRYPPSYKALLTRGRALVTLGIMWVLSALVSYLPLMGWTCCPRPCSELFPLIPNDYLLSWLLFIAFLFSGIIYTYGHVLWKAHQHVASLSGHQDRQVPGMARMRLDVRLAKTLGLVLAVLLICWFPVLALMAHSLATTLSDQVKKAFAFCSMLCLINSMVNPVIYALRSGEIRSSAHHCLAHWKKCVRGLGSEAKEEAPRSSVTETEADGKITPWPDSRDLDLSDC
T2 sequence (P21554 whole entry): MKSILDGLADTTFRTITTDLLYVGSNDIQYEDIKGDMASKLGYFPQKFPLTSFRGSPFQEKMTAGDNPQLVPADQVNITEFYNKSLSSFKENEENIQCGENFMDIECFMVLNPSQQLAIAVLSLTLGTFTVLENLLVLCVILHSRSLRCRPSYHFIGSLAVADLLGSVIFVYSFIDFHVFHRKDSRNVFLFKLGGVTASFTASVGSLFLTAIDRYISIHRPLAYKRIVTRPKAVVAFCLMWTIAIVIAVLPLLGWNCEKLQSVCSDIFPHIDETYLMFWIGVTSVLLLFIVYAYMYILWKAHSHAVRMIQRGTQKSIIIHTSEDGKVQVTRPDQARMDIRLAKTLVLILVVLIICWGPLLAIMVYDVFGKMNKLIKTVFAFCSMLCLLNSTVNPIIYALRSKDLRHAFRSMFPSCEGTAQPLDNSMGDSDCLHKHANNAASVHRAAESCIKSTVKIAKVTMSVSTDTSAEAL

| Compound | EC50 (hCB2 [1]; [6]) [nM] | IC50 (hCB2 [2]; hCB2 IC50 (CP displ, nM, HEK)) [nM] | EC50 (hCB2 [3]; [7]) [nM] | hCB1 EC50 (cAMP ag, nM HEK (24-well)) (hCB1 [4]; 24-well) | hCB1 EC50 (cAMP ag, nM, HEK (96-well)) (hCB1 [4]) | IC50 (hCB1 [5]; hCB1 IC50 (CP displ, nM, HEK)) [nM] | IC50 (hCB2 [2]; [8]) [nM] | IC50 (hCB1 [5]; [9]) [nM] | EC50 (hCB2 [1]) [nM] | EC50 (hCB2 [3]) [nM] |
| --- | --- | --- | --- | --- | --- | --- | --- | --- | --- | --- |
| CCCn1c(C)c(C(=O)c2cc3ccsc3n2CCC)c2c1CCCC2 [Compound I-77] | < 100 | < 100 | < 100 | NS (“Not Significant,” which means less than 30% agonist activity when compared to the positive control) | NS (“Not Significant,” which means less than 30% agonist activity when compared to the positive control) | 1000 to 10000 | – | – | – | – |
| CCCn1c(C(=O)c2c(C)n(S(=O)(=O)CC)c3ccccc23)cc2ccsc21 [Compound I-67] | – | 100 to 1000 | 100 to 1000 | – | NS (“Not Significant,” which means less than 30% agonist activity when compared to the positive control) | > 10000 | – | – | – | – |
| CCn1c(C(=O)c2c(C)[nH]c3ccccc23)cc2ccsc21 [Compound I-38] | – | – | – | – | NS (“Not Significant,” which means less than 30% agonist activity when compared to the positive control) | – | 1000 to 10000 | > 10000 | – | – |
| CCCn1c(C(=O)c2c[nH]c3ccncc23)cc2ccsc21 [Compound I-44] | – | – | – | – | NS (“Not Significant,” which means less than 30% agonist activity when compared to the positive control) | – | > 10000 | > 10000 | – | – |
| CCn1c(C(=O)c2c[nH]c3cnccc23)cc2ccsc21 [Compound I-40] | – | – | – | – | NS (“Not Significant,” which means less than 30% agonist activity when compared to the positive control) | – | > 10000 | > 10000 | – | – |
| CCn1c(C(=O)c2c[nH]c3ccncc23)cc2ccsc21 [Compound I-39] | – | – | – | – | NS (“Not Significant,” which means less than 30% agonist activity when compared to the positive control) | – | > 10000 | > 10000 | – | – |
| CCCn1c(C)c(C(=O)c2c(C)[nH]c3sccc23)c2ccccc21 [Compound I-6] | – | > 10000 | – | – | NS (“Not Significant,” which means less than 30% agonist activity when compared to the positive control) | > 10000 | – | – | – | – |
| CCCn1c(C)c(C(=O)c2cc3scnc3[nH]2)c2ccccc21 [Compound I-30] | – | 1000 to 10000 | – | – | NS (“Not Significant,” which means less than 30% agonist activity when compared to the positive control) | > 10000 | – | – | – | – |
| CCCn1c(C(=O)c2c(C)[nH]c3ccccc23)cc2ccsc21 [Compound I-51] | – | 100 to 1000 | 100 to 1000 | – | NS (“Not Significant,” which means less than 30% agonist activity when compared to the positive control) | > 10000 | – | – | – | – |
| CCCn1c(C(=O)c2c(C)[nH]c3ccc(C)cc23)cc2ccsc21 [Compound I-68] | – | 1000 to 10000 | – | – | NS (“Not Significant,” which means less than 30% agonist activity when compared to the positive control) | > 10000 | – | – | – | – |
| CCCn1c(C)c(C(=O)c2cc3ccsc3n2CC)c2ccccc21 [Compound I-54] | – | < 100 | – | – | – | 1000 to 10000 | – | – | < 100 | < 100 |
| CCOC(=O)CCn1c(C)c(C(=O)c2cc3ccsc3n2CC)c2ccccc21 [Compound I-26] | – | 100 to 1000 | < 100 | – | NS (“Not Significant,” which means less than 30% agonist activity when compared to the positive control) | > 10000 | – | – | – | – |
| CCCn1c(C)c(C(=O)c2cc3ccsc3n2CCC)c2cc(Cl)ccc21 [Compound I-52] | – | 100 to 1000 | – | – | – | 1000 to 10000 | – | – | 100 to 1000 | 100 to 1000 |
| CCCn1c(C(=O)c2c[nH]c3ccccc23)cc2ccsc21 [Compound I-64] | 100 to 1000 | 100 to 1000 | 100 to 1000 | – | – | > 10000 | – | – | – | – |
| Cc1c(C(=O)c2cc3ccsc3[nH]2)c2ccccc2n1CCN1CCOCC1 [Compound I-82] | – | 100 to 1000 | – | – | – | 1000 to 10000 | – | – | 100 to 1000 | 100 to 1000 |
